{"source": "patent US6849405B2", "about": "“Translation enhancer element of the human amyloid precursor protein gene” (The Brigham and Women's Hospital, Inc., priority 1997, dated 2005)", "key": {"[1]": {"tested_on": "H-ferritin subunit synthesis", "assay": "H-ferritin subunit synthesis, [35S]-methionine labeling and immunoprecipitation, primary astrocytes", "type": "cell-based", "conditions": "primary human fetal astrocytes, 0.5 ng/ml, 16 hours"}, "[2]": {"tested_on": "L-ferritin subunit synthesis", "assay": "L-ferritin subunit synthesis, [35S]-methionine labeling and immunoprecipitation, primary astrocytes", "type": "cell-based", "conditions": "primary human fetal astrocytes, 0.5 ng/ml, 16 hours"}, "ACT-mRNA": {"tested_on": "ACT-mRNA", "assay": "Northern blot of ACT-mRNA, astrocytoma cells", "type": "cell-based, human", "conditions": "astrocytoma cells, 16 hours of IL-1 stimulation, 48 hours blot exposure", "method": "Total RNA (10 μg) was extracted from primary astrocytes and astrocytoma cells with a RNA-STAT kit (Tel-Test). RNA samples were denatured in 50% formamide/2.2 M formaldehyde/20 mM MOPS/5 mM sodium acetate/0.5 mM EDTA, pH 7.4, at 60° C. for 10 minutes, electrophoresed on 1.0% agarose-formaldehyde gels, blotted onto Hybond-N filters and immobilized by UV crosslinking and heating filters to 80° C. Filters were prehybridized for 3 hours and hybridized overnight in a solution consisting of 50% formamide, […] denatured salmon sperm DNA, 5×SSC, 0.1% sodium dodecyl sulfate and 5×Denhardt's solution. Following hybridization, filters were washed twice for a total of 1 hour in 2×SSC/0.2% sodium dodecyl sulfate at room temperature and twice each for a total of 1 hour in 0.5×SSC/0.1% sodium dodecyl sulfate at 55° C. Equal loading was verified by ethidium bromide staining, non-specific hybridization of the ACT probe to the 28S rRNA, and by standardized hybridization to the GAPDH cDNA probe as an internal standard. The APP cDNA probe corresponded to the unique internal 1 kb fragment gel purified from the 3 kb APP cDNA (Kang et al. Nature 325: 733 (1987)), the ACT cRNA probe to a PstI/SacI fragment (536-943) in the human ACT cDNA (Chandra, et al., Biochemistry 22: 5055 (1983)) and the GAPDH probe to the human GAPDH gene (Tokunaga, et al., Cancer Res. 47: 5616 (1987))."}, "[3]": {"tested_on": "APP protein at the site of the lesion", "conditions": "injected into rat cerebral cortex; cited from earlier work"}}, "note": "“Also recorded” adds a separate entry of the source."}
{"substance": "interleukin-1 [IL-1]", "values": [{"measurement": "up regulation in H-ferritin subunit synthesis", "setting": "[1]", "value": 4, "unit": "fold"}, {"measurement": "up regulation in L-ferritin subunit synthesis", "setting": "[2]", "value": 25, "unit": "%"}, {"measurement": "induction in steady-state levels of ACT-mRNA", "setting": "ACT-mRNA", "value": 6, "unit": "fold"}, {"measurement": "steady-state levels of APP protein at the site of the lesion", "setting": "[3]", "value": "increase the steady-state level of APP-protein; also recorded: increases the steady-state levels of APP protein"}]}
